Source: patent publication US20230181564A1, “Potent Tetrahydroquinolone Eliminates Apicomplexan Parasites” (The University of Chicago, priority 2020, published 2023)

Key:
[1] = target: T1, bovine cytochrome bc1 (Bos taurus, UniProt P00157); assay: Bovine cytochrome bc1 activity assay; assay type: biochemical; conditions: read-out: Inhibition of bovine Cytbc1 activity
T1 construct: Whole fresh bovine heart was collected after slaughter; from tissue; host or cells: bovine heart mitochondria; DDM-solubilised, DEAE-Sepharose, Sephacryl S-300, PEG fractionation
Method: Bovine cytochrome bc1 activity assays. Bovine cytochrome bc, inhibition assay was carried out in 50 mM KPi pH 7.5, 2 mM EDTA, 10 mM KCN, 30 μM equine heart cytochrome c (Sigma Aldrich), and 2.5 nM bovine cytochrome bc, at room temperature. 20 mM inhibitors dissolved in DMSO were added to the assay at a desired concentration without prior incubation. […] The reaction was initiated by the addition of 50 μM decylubiquinol (Abcam). The reduced cytochrome c was monitored by the different absorption between 550 and 542 nm using extinction coefficient of 18.1 mM^−1 cm^−1 in a SPECTRAmax Plus 384 UV-visible Spectrometer. The initial kinetic rate is determined as a zero-order reaction and used as the specific activity of cytochrome bc1.

[2] = test system: Human Foreskin Fibroblast (HFF); assay: Cytotoxicity assay with WST-1 on HFF; assay type: cell-based
Method: PBS Sol/Toxicity pH7.4 refers to solubility of the compound in Phosphate Buffered Saline (PBS) at pH7.4. […] Tachy/Brady IC50 was determined in studies in which cultures of parasites in HFF were treated with varying concentrations of the compound and there was 50% inhibition of the replication (number) of parasites. Parasites were RH-YFP expressing tachyzoites (Tachy) and EGS (Brady) strains. Studies of effects of inhibitors on HFF or on T.gondii tachyzoites were performed with triplicate wells in at least two biological replicate experiments. Studies of effects on bradyzoites were performed at least twice in at least two biological replicate experiments. Compounds with much less inhibition of mammalian than T. gondii cytochrome bc in the saffarine enzyme assay (indicated by **) provide potential to further develop compounds, if unanticipated toxicity occurs from JAG21.
Cytotoxicity Assays in parallel with RH Strain T.gondii in vitro studies. Toxicity assays used WST-1 cell proliferation reagent (Roche) as in Fomovska et al. (2012). HFF were grown on a flat, clear-bottomed, black 96-well plate. Confluent HFF were treated with inhibitory compounds at concentrations of 10 μM and 50 μM. Compounds were diluted in IMDM-C, and 20 μL were added to each designated well, with triplicates for each condition. A gradient with 2 fold-decreasing concentrations of DMSO from 10% to 0% in colorless, translucent IMDM-C was used as a control. The plate was incubated for 72 hours at 37° C. 10 μL WST-1 reagent (Roche) were added to each well. Cells were incubated for 30-60 minutes. Absorbance was read using a fluorimeter at 420 nm. A higher degree of color change (and absorbance) indicated mitochondrial activity and cell viability.
Because T. gondii grows inside cells, if a compound were toxic to host HFF then it would make the compound appear to be spuriously effective (Fomovska et al. 2012; Fomovska et al. 2012a), when in actuality only toxicity for the host cell would be measured. Cytotoxicity to HFF was therefore assessed for all compounds at 10 μM. Results of this experiment are in Table 1, toxicity column. A two-way ANOVA and subsequent pairwise comparison found none of the differences in absorbance, compared to the media-DMSO vehicle controls, to be statistically significant (p>0.05). Most of these compounds are not toxic at 10 μM (the limit of solubility) and that cytotoxicity to cells can be attributed to DMSO in the solution, not the compound.

[3] = test system: T. gondii mitochondrial membrane potential (cytochrome bc); assay: Mitochondrial membrane potential by the safranine method (T. gondii, compared with HFF); assay type: cell-based, Toxoplasma gondii; conditions: permeabilized tachyzoites, safranin O
Method: T.gondii and HFF Mitochondrial Membrane Potential Measurements—the mitochondrial membrane potential was measured by the safranine method according to Vercesi et al, 1998). Freshly egressed T. gondii tachyzoites were filtered and washed twice with intracellular buffer (125 mM sucrose, 65 mM KCl, 10 mM HEPES-KOH buffer, pH 7.2, 1 mM MgCl2 and 2.5 mM potassium phosphate). After washing, the parasites were resuspended in the same buffer at 10^9/ml. An aliquot of 50 μL of this suspension was added to a cuvette containing Safranin 0, 2.5 μM and Succinate 1 mM in final volume of 2 mL of the intracellular buffer. The fluorescence was measured with a Hitachi 7000 spectrofluorometer with setting Ex. 495/Em. 586. Once the baseline fluorescence is testable, 30 μM digitonin was added to permeabilize the parasites. 85 seconds after permeabilization, the THQ derivatives, dissolved in DMSO, were added. 5 μM of FCCP (Carbonyl cyanide-4-(trifluoromethoxy) phenylhydrazone) was used as an uncoupler reference for calculations and its effect was considered 100%. Similar conditions for measuring the mitochondrial potential of mammalian cells were used with the following changes: the mammalian cells were re-suspended at 10^8/ml. 50 μl of mammalian cells was also used for each run in a cuvette with […]. The substrate used for mammalian cells was 5 mM glutamate and 5 mM malate. A higher concentration of digitonin (50 μM) was used to permeabilize the mammalian cells. The compounds were added at about 400 seconds after permeabilization. Each experiment was repeated at least three times in duplicates. Statistical analysis, unpaired student t test, was performed using GraphPad Prism 8.0 (GraphPad Software, Inc., San Diego, Calif.).
Mitochondrial membrane potential measurements were performed with permeabilized T.gondii tachyzoites in suspension using safranin O, which loads into polarized membranes. T. gondii tachyzoites were permeabilized with digitonin to allow the mitochondrial substrate succinate to cross the membrane and energize the mitochondrion. The fluorescence of safranin O, which loads into energized mitochondria was used to measure the membrane potential. The energized state of the mitochondrion is observed by a decrease in fluorescence (FIGS. 3A,C,E). Trifluoromethoxy carbonylcyanide phenylhydrazone (FCCP) was used to depolarize the membrane, which causes the fluorescence to go up as shown in FIG. 3A. JAG21 depolarized the membrane potential even at concentrations as low as 2 nM (FIG. 3C,D). JAG21 and Atovaquone had similar effects on the mitochondrial membrane potential (FIG. 3D). […] The effect of these THQ compounds against the T. gondii mitochondrial membrane potential was greater than the effect on the human foreskin fibroblast membrane potential (FIG. 3E,F). […]

Cc1[nH]c2c(c(=O)c1-c1ccc(Oc3ccc(OC(F)(F)F)cc3)cc1)CCCC2 [JAG021, 2-methyl-3-(4-(4-(trifluoromethoxy)phenoxy)phenyl)-5,6,7,8-tetrahydroquinolin-4-one]
inhibition at 0.1 µM ([1]; 0.1 μM): 36% | inhibition at 1 µM ([1]; 1 μM): 63% | Toxicity to human cells in the in vitro model (HFF) [2]: not toxic | Concentration depolarizing the T. gondii mitochondrial membrane potential [3]: ≤ 2 nM
